# Results published in patent publication US20230414571A1, “APPLICATION OF SMALL-MOLECULE COMPOUND IN PREPARATION OF ANTITUMOR DRUG” (SOOCHOW UNIVERSITY, priority 2021, published 2023).
# Assays:
# U87MG tumor = U87MG tumor growth and survival in mice after various treatments; type: in vivo, nude mouse
# Text: In all different experimental groups (a and b in FIG. 10), the overall survival (OS) of mice treated with TMZ and compound 27 is the best. […] However, mouse death caused by glioma is reduced only 20 days […] treatment. After this period of time, the survival rates of the in-situ U87 heterogeneous tumor of the two single drug groups decreases rapidly due to malignant glioma.
# U87 glioma cells = experiment: Targeted metabonomics analysis of U87 cells; type: cell-based
# Protocol: 1×10^7 cells (a sample cell number) were collected, and the cell supernatant was removed by means of centrifugation (1000×g, 1 minute) after quenching with a newly prepared quencher. The cells were resuspended with 100 μL of ultrapure water and mixed well. After 800 μL of cold methanol:acetonitrile (1:1, v/v) was added, the uniformly mixed cell samples were subjected to ultrasonic treatment in an ice bath for 30 minutes. The mixture was stored at −20° C. for 1 h to precipitate the protein. After centrifugation at 4° C. (14000×g, 20 minutes), the supernatant was collected, lyophilized, stored at −80° C., and then analyzed by means of […].
# The lyophilized samples were resuspended in a solution (acetonitrile:water, 1:1, v/v, 100 μL) and then centrifuged at 4° C. (14000×g, 10 minutes). The supernatant (100 μL) was collected and diluted with an acetonitrile solution (100 μL), and a […] sample was loaded at 4° C. by using an Agilent 1290 Infinity liquid chromatography (LC) system (Agilent Technologies, Beijing, China) and a 5500 QTRAP mass spectrometer (Toronto of Canada, AB Sciex). At ACQUITY-UPLC-BEH column (1.7 μm, 2.1 mm×150 mm, Waters Technology (Shanghai) Co., Ltd.), chromatographic separation was performed at a flow rate of 300 μL/min, where solvent A (mobile phase) was a 15 mM ammonium acetate aqueous solution, and solvent B was acetonitrile. Chromatographic conditions of gradient elution were reduced from 90% B to 40% B, and were increased sharply from 40% B to 90% B after 18 minutes, a volume ratio of 90% B was kept for 4.9 minutes after 0.1 minute, and the duration of the whole process was 23 minutes. An equal volume of compounds was extracted from 32 actual samples so as to monitor the stability of the system, thereby being used for processing a quality control (QC) sample and put into a real sample. Mass spectrum experiments were performed in a negative ion and multi-reaction monitoring mode, and specific parameters were as follows: a source temperature of 450° C., an atomizer gas (GS1): 45, an auxiliary gas (GS2): 45, a curtain gas (CUR): 30, and an ion space voltage floating (ISVF): −4500 V.
# Standard GC-MS data was processed by using analysis software (AB Sciex, Toronto, Canada), which included converting the original mass spectrum data to data containing m/z, measuring the corresponding ion intensity and retention time, and subsequent statistical analysis. Peak testing and calibration of all the samples were compared to their chemical standards (Sigma-Aldrich). […]
# Statistical significance was tested by using t. *: P<0.05, **: P<0.01, and ***: P<0.005. […] The hexokinase (HK2 in cancer cells), which is the first one and serves as a rate-limiting enzyme in a glycolysis pathway was evaluated. […]
# [1] = system: cranial nerve glioma cell U87; experiment: Antiproliferative activity against cranial nerve glioma cell U87; type: cell-based; details: Homo sapiens, U-87 MG; U87 cells; read-out: concentration at which half of the tumor cells are killed
# Text: FIG. 14 is an antiproliferative activity test diagram of compound 8, compound 11, compound 13, and compound 21 against a cranial nerve glioma cell U87.
smiles,measurement,setting,value
CCOc1ccc(C(=O)NCCCN(C)CCCN(C)Cc2ccccc2)cc1Br [compound 27],growth of solid tumors,"U87MG tumor; U87MG subcutaneous tumor, nude mouse",can inhibit growth of solid tumors
same,"glioma growth / survival rate, bioluminescence tracking","U87MG tumor; in situ U87-luciferase mice, compared with PBS",delays the growth of glioma
same,median survival time,"U87MG tumor; mice with U87MG tumor, n=6 per group",30 days
same,glyceraldehyde-3-phosphate accumulation relative to control group processed by PBS,U87 glioma cells; U87 cells after treatment,approximately 3.5 times
same,increase in concentration of thiamine pyrophosphate (TPP),U87 glioma cells; U87 cells after treatment,~2.5 times
same,glyceride-3-phosphate change,"U87 glioma cells; U87 cells after treatment, P<0.005",significantly reduced by nearly two orders of magnitude
same,concentration of glucose-6-phosphate,"U87 glioma cells; U87 cells, vs control group processed by PBS",lower than that of the control group
same,IC50,[1],11.3 µM
